Here are results for 12 compounds from ChEMBL document CHEMBL1201862, “PubChem BioAssay data set” (2004).

Calls of active or inactive are those of the source.

The nature of assay [1]: Cytotoxicity screening for potential Inhibitors of Bacterial Capsule Biogenesis. [Related pubchem assays (depositor defined):AID488970]. It is filed as functional.
For a further assay, the target named is Coagulation factor XII (Homo sapiens, UniProt P00748). Put plainly: FXIIa inhibitor potency, concentration-response, biochemical (AID 716). Format: functional.
Assay [2] in a line: cytotoxicity toward DRD oncogenic fibroblasts, dose response, cell-based, non-viral oncogenic, luminescence (AID 1934). It is filed as functional. The note with it: Homo sapiens.
For assay [3], the system named is BJ. Put plainly: cytotoxicity toward BJ-TERT-LT-ST fibroblasts, dose response, cell-based, RAS-independent, luminescence (AID 1935).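 Note: BJ fibroblasts immortalized with TERT plus LT and ST oncogenes.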 Format: functional. The note with it: Homo sapiens.
Assay [4] deals with Scavenger receptor class B member 1 (Mus musculus, UniProt Q61009). Nature of the assay: inhibitors of SR-BI mediated HDL lipid uptake, dose response, ldlA[mSR-BI] cells, fluorescence, cherry pick (AID 493194).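 Note: cellular uptake of fluorescent DiI-labeled HDL measured as cell fluorescence.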 It is filed as functional, cell-based.
The subject of assay [5] is BJ. Put plainly: cytotoxicity toward BJ-TERT fibroblasts, dose response, cell-based, RAS-independent, luminescence (AID 1933). The note with it: Homo sapiens. It is filed as functional.
Assay [6] deals with BJ. Nature of the assay: cells. Format: functional, cell-based. The settings on record: Homo sapiens.
Another assay concerns the target X-box-binding protein 1 (Homo sapiens, UniProt P17861). It is filed as functional, Cricetulus griseus.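 Note: confirmatory dose-response counter-screen serving a CHOP assay.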
For assay [7], the target named is Eukaryotic translation initiation factor 4H (Homo sapiens, UniProt Q15056). Nature of the assay: human eIF4H binding inhibitors, primary screen, translation initiation inhibitor project, biochemical, uHTS, fluorescence polarization (AID 2012). In general terms: Polarisation of emitted light reports the rotation of a fluorescent probe.
In assay [8] the target is Polyadenylate-binding protein 1 (Homo sapiens, UniProt P11940). Nature of the assay: PABP poly(A) RNA binding inhibitors, primary screen, biochemical, fluorescence polarization, uHTS (AID 2014).
The target in assay [9] is Metabotropic glutamate receptor 4 (Rattus norvegicus, UniProt P31423). Put plainly: Modulation of the Metabotropic Glutamate Receptor mGluR4: Rat PAM Potency. [Related pubchem assays (depositor defined):AID2437, AID2807]. Format: functional.
In a further assay the test system is HEK293. Put plainly: cells. The settings on record: Homo sapiens.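 Note: cells exposed to compound for 14 hours overnight before viability readout.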
Assay [10] has as its target T1, Nucleotide-binding oligomerization domain-containing protein 1 (Homo sapiens, UniProt Q9Y239).
T1 sequence (Q9Y239 whole entry): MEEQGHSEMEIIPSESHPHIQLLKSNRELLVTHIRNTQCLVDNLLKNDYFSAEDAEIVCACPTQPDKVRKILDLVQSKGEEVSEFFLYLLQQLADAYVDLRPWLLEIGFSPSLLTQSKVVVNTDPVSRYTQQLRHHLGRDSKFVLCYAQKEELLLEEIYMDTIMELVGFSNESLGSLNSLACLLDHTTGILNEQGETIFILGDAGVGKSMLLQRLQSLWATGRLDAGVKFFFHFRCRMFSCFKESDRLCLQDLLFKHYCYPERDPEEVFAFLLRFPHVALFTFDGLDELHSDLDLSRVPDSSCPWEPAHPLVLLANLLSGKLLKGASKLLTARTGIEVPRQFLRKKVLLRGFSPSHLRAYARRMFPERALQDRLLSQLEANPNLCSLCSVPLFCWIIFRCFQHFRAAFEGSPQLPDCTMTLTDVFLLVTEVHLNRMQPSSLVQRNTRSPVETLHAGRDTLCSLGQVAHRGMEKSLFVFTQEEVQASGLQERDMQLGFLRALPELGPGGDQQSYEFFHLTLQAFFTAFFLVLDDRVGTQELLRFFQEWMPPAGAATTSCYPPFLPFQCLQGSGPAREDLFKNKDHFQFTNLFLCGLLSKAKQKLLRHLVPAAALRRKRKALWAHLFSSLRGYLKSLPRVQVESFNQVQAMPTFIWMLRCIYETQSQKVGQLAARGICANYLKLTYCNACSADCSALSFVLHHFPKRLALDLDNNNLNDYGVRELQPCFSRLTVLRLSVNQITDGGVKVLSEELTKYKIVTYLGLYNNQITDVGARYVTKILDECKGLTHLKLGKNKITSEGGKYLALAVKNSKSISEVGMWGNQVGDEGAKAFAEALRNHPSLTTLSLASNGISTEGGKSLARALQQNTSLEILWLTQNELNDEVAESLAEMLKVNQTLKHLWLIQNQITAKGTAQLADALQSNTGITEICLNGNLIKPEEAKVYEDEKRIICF
Nature of the assay: NOD1 signaling inhibitors, SAR follow-up, revised (AID 2333). Format: functional.

The target in a further assay is Tumor necrosis factor (Homo sapiens, UniProt P01375). Nature of the assay: TNFa-triggered NF-kB activation inhibitors, SAR follow-up, cell-based, revised (AID 2337). It is filed as functional.
The target of assay [11] is Nucleotide-binding oligomerization domain-containing protein 2 (Homo sapiens, UniProt Q9HC29). Nature of the assay: PubChem AID 2334. It is filed as functional.
The target of assay [12] is Cyclin-dependent kinase 5/CDK5 activator 1 (Homo sapiens, UniProt Q00535). Nature of the assay: CDK5/p35 kinase inhibitors, dose response, biochemical, cherry-picked samples, set 2 (AID 504545).
Assay [13] is described as follows: C. albicans growth with fluconazole, confirmation, fluorescence, retest (AID 2467). Format: functional, cell-based.
A further assay deals with INS1. Put plainly: beta cell apoptosis inhibitors, cytokine rescue, dose response, luminescence, retest (AID 449756).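 Note: cell death triggered by IL-1 beta plus TNF-alpha plus IFN-gamma mixture; protective hits raise ATP signal compared with cytokine alone wells.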 It is filed as functional, cell-based. The settings on record: Rattus norvegicus.
For the next assay, the system named is Trypanosoma cruzi. Nature of the assay: growth inhibition of intracellular Trypanosoma cruzi, dose response, cell-based, plate reader, dry powder, set 3 (AID 493197). Format: functional.
Assay [14] is described as follows: cells.
A short description of assay [15]: A cytotoxicity screen of small molecule inhibitors of the PhoP region in Salmonella typhi identified in the primary screen. [Related pubchem assays: 1850, 1864, 1985 ]. It is filed as functional.
The nature of assay [16]: inhibitors of intracellular T. cruzi replication, confirmation, NIH3T3 host cells, beta-gal luminescence (AID 2044).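 Note: intracellular parasites grown in NIH/3T3 mouse fibroblasts as host cells; luminescent beta-galactosidase reporter signal from transgenic T. cruzi replicating inside host cells; inhibitors lower the luminescence signal.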 It is filed as functional, cell-based.
Assay [17] can be described thus: NIH-3T3 fibroblast cytotoxicity, dose response, cytotoxicity control, cell-based, fluorescence, Alamar Blue, secondary assay (AID 2327).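 Note: NIH-3T3 mouse fibroblasts cultured with fluconazole at 8 µg/mL.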 Format: functional. For orientation: The colour change of resazurin is a common sign of viable cells or microbes.
Assay [18] in a line: HepG2 cell cytotoxicity, dose response, cytotoxicity control for non-replicating M. tuberculosis project (AID 489018). The settings on record: Mycobacterium tuberculosis. Format: functional.
Assay [19] in a line: Vero E6 cell cytotoxicity, dose response, cytotoxicity control for non-replicating M. tuberculosis project, secondary assay (AID 492998). Format: functional, VeroE6. The settings on record: Vero C1008.
Assay [20] is described as follows: cytotoxicity in NIH/3T3 mouse fibroblasts, dose response, cytotoxicity control, cell-based, mouse embryonic fibroblasts, dry powder, set 2 (AID 493247). Format: functional. The note with it: Fibroblast.
Assay [21] in a line: cells. Format: functional.
Assay [22] can be described thus: THP-1 cell cytotoxicity, dose response, cytotoxicity control for non-replicating M. tuberculosis project (AID 489025). Format: functional.
A further assay has as its system T-cell. Nature of the assay: inhibitors of CD8+ T cell–vesicle binding, dose response, mouse 2C CD8+ T cells, flow cytometry (AID 485284). Format: functional. In general terms: A flow cytometer gives signals particle by particle.
Assay [23] addresses T2, Sphingosine 1-phosphate receptor 4 (Homo sapiens, UniProt O95977).
T2 sequence (O95977 whole entry): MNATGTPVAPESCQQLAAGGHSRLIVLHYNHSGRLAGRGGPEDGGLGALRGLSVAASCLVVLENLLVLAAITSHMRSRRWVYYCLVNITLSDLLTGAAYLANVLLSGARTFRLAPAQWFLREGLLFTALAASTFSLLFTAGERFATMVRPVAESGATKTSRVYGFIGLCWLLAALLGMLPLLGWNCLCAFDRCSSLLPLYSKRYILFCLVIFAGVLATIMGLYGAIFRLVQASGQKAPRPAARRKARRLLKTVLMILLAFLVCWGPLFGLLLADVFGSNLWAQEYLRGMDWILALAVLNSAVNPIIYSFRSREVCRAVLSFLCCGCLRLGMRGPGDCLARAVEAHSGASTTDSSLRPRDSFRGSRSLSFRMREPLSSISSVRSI
Put plainly: S1P4 receptor agonists, human, late-stage follow-up, cell-based, fluorescence, synthesized compounds (AID 463107). Format: functional.

The target of assay [24] is Sphingosine 1-phosphate receptor 1 (Homo sapiens, UniProt P21453). Format: functional.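 Note: Tango beta-arrestin reporter U2OS cells stimulated with S1P near its EC80; inhibitor potency meaning antagonism of receptor activation by the natural agonist.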
Assay [25] addresses T2, Sphingosine 1-phosphate receptor 4. Put plainly: Fluorescence dose response cell-based high throughput screening assay for antagonists of the Sphingosine 1-Phosphate Receptor 4 (S1P4). [Related pubchem assays: 1524 (Confirmation in triplicates.), 1510 (Primary screen.)]. Format: functional.
Assay [26] can be described thus: HepG2 cell cytotoxicity, dose response, cytotoxicity control for Shn3 inhibitor project, CellTiter-Glo, cherry-picked (AID 624134). Format: functional, cell-based.
Assay [27] can be described thus: cytotoxicity toward NIH3T3 fibroblasts, dose response, counter-screen, cell-based, ATP luminescence, mouse fibroblasts (AID 2010).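 Note: cells exposed to compound for about 90 hours before reading.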 It is filed as functional.
Assay [28] in a line: microbe, parasite or virus in culture. It is filed as functional. The note with it: Mycobacterium tuberculosis.
In assay [29] the target is Neurotensin receptor type 1 (Homo sapiens, UniProt P30989). Format: functional.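 Note: Image-based confirmatory dose-response assay measuring agonist activity at NTR1; NTR1-expressing U2OS osteosarcoma cells imaged for beta-arrestin GFP spot formation; agonist potency where compounds increase beta-arrestin recruitment.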
The target in assay [30] is T2, Sphingosine 1-phosphate receptor 4. Nature of the assay: Late stage fluorescence dose response cell-based screening assay for antagonists of the Sphingosine 1-Phosphate Receptor 4 (S1P4). [Related pubchem assays: 1524 (Confirmation screen (S1P4 antagonists).), 1510 (Primary screen (S1P4 antagonists).), 1853 (Summary AID (S1P4 antagonists).), 1692 (Dose response screen (S1P4 antagonists).)]. Format: functional.

The nature of assay [31]: Shn3 3'UTR reporter inhibitors, dose response, cell-based, Clone20 osteoblasts, firefly luciferase, cherry-picked (AID 624132).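 Note: firefly luciferase luminescence from reporter carrying the Shn3 3'UTR in osteoblasts.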 Format: functional.
The nature of assay [32]: control 3'UTR Renilla luciferase suppression, dose response, counter-screen for Shn3 inhibitor project, cell-based, Clone20-Shn3RL, cherry-picked (AID 624133). Format: functional.

Chain of Scavenger receptor class B member 1 (Q61009 whole entry): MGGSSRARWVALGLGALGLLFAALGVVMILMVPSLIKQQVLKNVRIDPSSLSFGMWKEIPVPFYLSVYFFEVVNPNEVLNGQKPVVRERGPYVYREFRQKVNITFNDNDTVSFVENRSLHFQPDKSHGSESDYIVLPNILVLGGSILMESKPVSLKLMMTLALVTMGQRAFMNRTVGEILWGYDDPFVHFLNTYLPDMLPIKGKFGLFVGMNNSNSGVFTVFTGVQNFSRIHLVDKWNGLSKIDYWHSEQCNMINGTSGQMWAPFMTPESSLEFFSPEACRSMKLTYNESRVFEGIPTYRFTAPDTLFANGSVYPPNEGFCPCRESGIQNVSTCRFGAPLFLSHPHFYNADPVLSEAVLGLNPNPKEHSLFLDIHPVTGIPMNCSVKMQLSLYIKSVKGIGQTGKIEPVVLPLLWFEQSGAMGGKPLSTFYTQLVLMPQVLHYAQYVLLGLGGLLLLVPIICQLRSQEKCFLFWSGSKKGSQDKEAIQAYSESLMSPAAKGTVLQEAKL
Chain of Nucleotide-binding oligomerization domain-containing protein 2 (Q9HC29 whole entry, the tested form may be a part): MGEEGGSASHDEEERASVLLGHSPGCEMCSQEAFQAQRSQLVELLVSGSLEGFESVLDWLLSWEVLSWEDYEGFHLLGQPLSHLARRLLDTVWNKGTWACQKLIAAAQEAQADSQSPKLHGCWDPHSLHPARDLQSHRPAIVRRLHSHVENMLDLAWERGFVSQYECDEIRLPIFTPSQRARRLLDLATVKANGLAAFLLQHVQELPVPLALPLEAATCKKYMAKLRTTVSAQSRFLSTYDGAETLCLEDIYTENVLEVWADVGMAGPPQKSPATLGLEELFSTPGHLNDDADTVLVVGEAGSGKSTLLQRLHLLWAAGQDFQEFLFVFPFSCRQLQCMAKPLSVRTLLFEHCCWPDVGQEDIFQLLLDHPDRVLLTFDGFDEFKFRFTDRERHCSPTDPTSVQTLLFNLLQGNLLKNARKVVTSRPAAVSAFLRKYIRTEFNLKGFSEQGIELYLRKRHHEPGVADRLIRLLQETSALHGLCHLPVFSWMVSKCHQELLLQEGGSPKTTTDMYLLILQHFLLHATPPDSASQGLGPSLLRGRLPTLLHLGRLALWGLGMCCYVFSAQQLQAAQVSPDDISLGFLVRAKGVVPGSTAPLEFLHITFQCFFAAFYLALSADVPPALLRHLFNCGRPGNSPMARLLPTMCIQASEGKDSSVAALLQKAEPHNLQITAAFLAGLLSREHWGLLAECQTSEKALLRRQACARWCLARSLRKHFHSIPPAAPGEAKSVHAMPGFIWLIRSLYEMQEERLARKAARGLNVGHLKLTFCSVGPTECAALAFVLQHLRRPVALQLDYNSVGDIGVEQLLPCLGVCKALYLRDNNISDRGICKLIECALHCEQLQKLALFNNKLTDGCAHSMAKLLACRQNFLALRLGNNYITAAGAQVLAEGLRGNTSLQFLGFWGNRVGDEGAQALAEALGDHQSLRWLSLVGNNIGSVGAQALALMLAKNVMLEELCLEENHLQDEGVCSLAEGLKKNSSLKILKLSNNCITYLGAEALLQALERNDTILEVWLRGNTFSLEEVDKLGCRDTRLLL
Chain of Polyadenylate-binding protein 1 (P11940 whole entry): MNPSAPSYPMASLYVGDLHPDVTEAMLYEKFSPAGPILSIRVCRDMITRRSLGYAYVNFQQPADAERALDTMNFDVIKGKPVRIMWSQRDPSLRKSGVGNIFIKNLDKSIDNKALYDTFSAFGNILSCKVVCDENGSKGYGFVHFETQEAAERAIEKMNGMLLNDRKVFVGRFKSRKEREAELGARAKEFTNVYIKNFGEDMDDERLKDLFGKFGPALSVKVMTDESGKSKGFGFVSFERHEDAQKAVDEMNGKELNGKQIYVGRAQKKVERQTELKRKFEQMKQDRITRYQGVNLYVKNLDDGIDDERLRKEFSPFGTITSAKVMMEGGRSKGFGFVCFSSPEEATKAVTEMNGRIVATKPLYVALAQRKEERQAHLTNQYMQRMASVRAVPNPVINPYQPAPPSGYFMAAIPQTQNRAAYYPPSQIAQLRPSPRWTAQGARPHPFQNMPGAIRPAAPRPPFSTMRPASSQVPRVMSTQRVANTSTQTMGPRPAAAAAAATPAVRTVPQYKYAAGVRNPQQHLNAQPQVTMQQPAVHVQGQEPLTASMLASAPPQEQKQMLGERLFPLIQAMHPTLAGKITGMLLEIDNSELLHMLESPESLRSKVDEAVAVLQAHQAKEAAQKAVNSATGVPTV
Chain of Sphingosine 1-phosphate receptor 1 (P21453 whole entry): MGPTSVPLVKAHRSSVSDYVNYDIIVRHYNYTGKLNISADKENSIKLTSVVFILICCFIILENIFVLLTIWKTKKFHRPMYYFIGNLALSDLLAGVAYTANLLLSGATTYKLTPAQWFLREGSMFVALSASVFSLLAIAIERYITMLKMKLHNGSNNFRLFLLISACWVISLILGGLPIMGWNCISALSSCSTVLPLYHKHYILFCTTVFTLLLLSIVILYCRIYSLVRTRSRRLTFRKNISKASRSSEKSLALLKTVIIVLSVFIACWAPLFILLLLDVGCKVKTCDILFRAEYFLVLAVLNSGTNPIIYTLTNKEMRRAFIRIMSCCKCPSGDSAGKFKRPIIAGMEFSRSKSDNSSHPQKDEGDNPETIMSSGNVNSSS
Chain of Cyclin-dependent kinase 5/CDK5 activator 1 (Q00535 whole entry): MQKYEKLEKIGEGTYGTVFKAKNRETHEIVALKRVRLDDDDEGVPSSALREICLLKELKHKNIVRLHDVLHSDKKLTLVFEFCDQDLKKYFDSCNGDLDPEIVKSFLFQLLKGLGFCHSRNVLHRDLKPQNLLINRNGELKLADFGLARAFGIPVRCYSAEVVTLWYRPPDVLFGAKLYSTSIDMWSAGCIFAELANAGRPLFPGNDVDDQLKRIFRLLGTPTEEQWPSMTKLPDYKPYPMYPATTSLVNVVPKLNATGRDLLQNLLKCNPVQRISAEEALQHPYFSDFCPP
Chain of Cyclin-dependent kinase 5/CDK5 activator 1 (Q15078 whole entry, further chain): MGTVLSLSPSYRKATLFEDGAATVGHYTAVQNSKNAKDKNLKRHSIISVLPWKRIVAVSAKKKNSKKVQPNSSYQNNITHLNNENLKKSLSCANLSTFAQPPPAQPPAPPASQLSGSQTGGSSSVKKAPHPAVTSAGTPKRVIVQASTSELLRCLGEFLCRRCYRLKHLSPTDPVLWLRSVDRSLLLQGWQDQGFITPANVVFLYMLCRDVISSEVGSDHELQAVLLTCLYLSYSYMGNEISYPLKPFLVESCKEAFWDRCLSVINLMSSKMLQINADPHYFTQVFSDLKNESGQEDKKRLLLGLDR
Chain of Tumor necrosis factor (P01375 whole entry, the tested form may be a part): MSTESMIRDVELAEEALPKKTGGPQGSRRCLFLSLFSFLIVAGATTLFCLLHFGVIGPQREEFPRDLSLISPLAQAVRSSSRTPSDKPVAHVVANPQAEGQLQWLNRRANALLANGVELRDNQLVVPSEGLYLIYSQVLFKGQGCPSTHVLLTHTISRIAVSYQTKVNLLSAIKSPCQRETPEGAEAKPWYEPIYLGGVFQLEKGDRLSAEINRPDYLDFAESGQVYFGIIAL
Chain of Coagulation factor XII (P00748 20-372 limits assumed): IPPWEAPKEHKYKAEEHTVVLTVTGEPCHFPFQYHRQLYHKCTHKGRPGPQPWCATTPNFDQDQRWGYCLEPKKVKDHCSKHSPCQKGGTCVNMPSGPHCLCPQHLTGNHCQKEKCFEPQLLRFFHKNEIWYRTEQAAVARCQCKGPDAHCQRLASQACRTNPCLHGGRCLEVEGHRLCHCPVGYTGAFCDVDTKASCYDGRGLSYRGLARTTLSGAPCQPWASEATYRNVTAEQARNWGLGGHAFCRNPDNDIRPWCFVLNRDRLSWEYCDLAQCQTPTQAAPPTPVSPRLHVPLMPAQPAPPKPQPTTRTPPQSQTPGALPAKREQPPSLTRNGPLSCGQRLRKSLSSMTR
Chain of Coagulation factor XII (P00748 373-615 limits assumed): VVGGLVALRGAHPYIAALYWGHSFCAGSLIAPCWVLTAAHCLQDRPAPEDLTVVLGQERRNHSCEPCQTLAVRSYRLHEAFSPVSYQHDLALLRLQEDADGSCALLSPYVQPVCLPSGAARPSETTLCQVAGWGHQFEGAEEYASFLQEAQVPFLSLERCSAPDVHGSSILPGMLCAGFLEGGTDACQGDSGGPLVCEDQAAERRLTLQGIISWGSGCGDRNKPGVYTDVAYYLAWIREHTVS
Chain of Neurotensin receptor type 1 (P30989 whole entry): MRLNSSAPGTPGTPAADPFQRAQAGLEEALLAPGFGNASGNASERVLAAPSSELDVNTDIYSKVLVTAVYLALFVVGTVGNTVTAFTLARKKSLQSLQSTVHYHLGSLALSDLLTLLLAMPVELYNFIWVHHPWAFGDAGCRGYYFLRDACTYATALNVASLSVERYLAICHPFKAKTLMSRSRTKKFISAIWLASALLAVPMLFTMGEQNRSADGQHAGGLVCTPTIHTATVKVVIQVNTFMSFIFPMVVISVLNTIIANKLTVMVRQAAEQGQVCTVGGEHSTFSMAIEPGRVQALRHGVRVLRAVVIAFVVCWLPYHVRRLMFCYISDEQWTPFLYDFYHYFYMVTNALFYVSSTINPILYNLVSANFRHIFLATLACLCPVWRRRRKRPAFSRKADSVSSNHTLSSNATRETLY
Chain of X-box-binding protein 1 (P17861 whole entry): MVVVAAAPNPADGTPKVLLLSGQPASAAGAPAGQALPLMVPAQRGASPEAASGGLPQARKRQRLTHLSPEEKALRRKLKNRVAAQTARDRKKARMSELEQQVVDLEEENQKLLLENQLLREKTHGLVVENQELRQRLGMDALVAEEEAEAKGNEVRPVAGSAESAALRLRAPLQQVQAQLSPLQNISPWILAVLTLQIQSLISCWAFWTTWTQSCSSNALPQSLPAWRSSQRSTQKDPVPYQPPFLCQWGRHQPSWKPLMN

On to `N=C(N)SCCc1cccc(CCSC(=N)N)c1`, for which the CC50 in assay [1] was 47.9 µM (active).
A word on the IC50: it is the point on the concentration scale where inhibition reaches its midpoint. As for `CCOC(=O)c1[nH]c2ccc(OC)cc2c1NC(=O)N1CCOCC1`, the IC50 on Coagulation factor XII was > 50 µM (inactive).
For orientation: EC50 means the concentration giving half of the maximal effect. One may read the AC50 as the midpoint of the concentration-response curve, whichever way the signal moves. Consider `Cc1c(C(=O)OCCOC(C)C)[nH]c2c1C(=O)CC(c1ccco1)C2` (stereo not given), for which the EC50 is 1.28 µM (inconclusive) in assay [2], 0.73 µM (inconclusive) in the assay on BJ [3], 0.37 µM (active) in the assay with BJ [5] and 1.71 µM (inconclusive) in the assay on BJ [6]. The AC50 in assay [4] is 34 µM (active).
As to `O=C(NCc1ccccc1)c1cc(-c2ccncc2)nc2ccc(S(=O)(=O)N3CCOCC3)cc12`, the “Absolute IC50 (XBP1)” value on X-box-binding protein 1 was found to be 10 µM.
As to `O=C(COC(=O)CCC(=O)c1ccc(Cl)cc1)NCc1ccco1`, the IC50 is 11.1 µM (active) in assay [7] and 26.7 µM (active) in assay [8].
Consider `CC1(C)[C@@H]2C(=O)N(c3ccc(NC(=O)c4ccccn4)cc3Cl)C(=O)[C@@H]21`, for which the EC50 in assay [9] was 0.69 µM (active).
On to `CCC1CCc2c(sc(NC(=O)c3ccccc3Br)c2C(=O)OC)C1` (stereo not given), for which the IC50 (in the assay with HEK293; in assay [10]; at Tumor necrosis factor; in assay [11]) was > 20 µM (inactive) each time.
As for `Cc1nn(-c2ccc(Cl)cn2)c2c1C(=O)CC(C)(C)C2Br` (stereo not given), the AC50 in assay [12] is 89.2 µM (active).
For the compound `O=C(CCC(=O)Nc1ccc(Cl)cc1Cl)N/N=C/c1ccc([N+](=O)[O-])o1`, the half-maximal effective concentration (EC50) is 2.3 µM (active) in [13]; 0.007 µM (active) in the assay “cells [14]”; > 50 µM (active) in assay [15]; < 0.1 µM (active) in assay [16]; 8.66 µM (inconclusive) in [17]. Besides, the values for the half-maximal activity concentration (AC50) (with INS1; in the assay with Trypanosoma cruzi; in assay [20]) were 15.2 µM (active), < 0.003 µM (active) and 11.4 µM (active), respectively. The CC50 in assay [18] is 14 µM (active); in assay [19], > 20 µM (active); in assay [22] it was 17.4 µM (active). In “cells [21]”, the concentration for half-maximal inhibition (IC50) was 0.85 µM (active).
On to `CCOC(=O)/C=C1\SCC(=O)N1CC(=O)NC1CCCCC1`, for which the EC50 with T-cell was 7.17 µM (active).
With `O=[N+]([O-])c1ncccc1OCCOc1ccc(Cl)cc1Cl`, the EC50 in assay [23] is 29.8 µM (inactive).
Turning to `O=C(/C(=C/c1ccc(Cl)cc1)c1nc2ccccc2[nH]1)c1cccs1`, the AC50 is 3.71 µM (active) in the assay with INS1, 8.26 µM (active) in [26], 2.66 µM (active) in [31] and 8.35 µM (active) in assay [32]. In addition, the EC50 was 5.28 µM (inconclusive) in assay [2]; 3.71 µM (inconclusive) in the assay on BJ [3]; 1.03 µM (active) in [16]; 5.47 µM (active) in assay [27]; 12.6 µM (active) in assay [29]; 4.27 µM (inconclusive) with BJ [5]. In the assay with BJ [6], the EC50 was 9.34 µM (active). Moreover, the concentration for half-maximal inhibition (IC50) is 6.77 µM (active) in assay [24], 0.37 µM (active) in assay [25] and 0.737 µM (active) in assay [30]. Moreover, the CC50 in [28] was 2.9 µM (active).
